Source: the supplement of paper PMC12076712

Assays:
Assay in all cases: pIC50, kinobeads binding competition
UniProt O15530 = biological target: T1, UniProt O15530
T1 sequence (whole entry): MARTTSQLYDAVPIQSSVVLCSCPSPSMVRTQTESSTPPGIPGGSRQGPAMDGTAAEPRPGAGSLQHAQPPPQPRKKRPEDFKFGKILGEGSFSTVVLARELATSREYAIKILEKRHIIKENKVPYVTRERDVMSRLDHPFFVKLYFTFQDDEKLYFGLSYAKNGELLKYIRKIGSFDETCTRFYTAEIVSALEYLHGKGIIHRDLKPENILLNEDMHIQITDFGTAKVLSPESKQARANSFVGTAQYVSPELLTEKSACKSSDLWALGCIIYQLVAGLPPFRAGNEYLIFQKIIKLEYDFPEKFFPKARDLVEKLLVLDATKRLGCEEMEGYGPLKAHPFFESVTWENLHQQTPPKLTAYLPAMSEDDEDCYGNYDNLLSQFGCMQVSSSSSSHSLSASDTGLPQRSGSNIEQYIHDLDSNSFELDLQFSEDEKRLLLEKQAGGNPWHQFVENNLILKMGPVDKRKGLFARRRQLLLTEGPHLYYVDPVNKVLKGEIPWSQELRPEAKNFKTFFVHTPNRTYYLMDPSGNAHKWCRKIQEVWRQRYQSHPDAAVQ
How it was run: (§1)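 Nine compound concentrations were tested, starting at 30 μM in 1:4 steps on live Jurkat cells (60 min, 37 °C, then lysis) or in 1:5 steps on Jurkat lysate or a 1:1:1:1 HEK293/K-562/HepG2/placenta lysate mix (60 min, 4 °C). Kinobeads-bound proteins were digested and quantified with TMT10 LC-MS/MS. pIC50 values are from logistic dose-response fits in the R drc package of fold changes relative to vehicle, from biological duplicates.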

EPHB2 = biological target: T2, EPHB2 (UniProt P29323)
T2 sequence (whole entry): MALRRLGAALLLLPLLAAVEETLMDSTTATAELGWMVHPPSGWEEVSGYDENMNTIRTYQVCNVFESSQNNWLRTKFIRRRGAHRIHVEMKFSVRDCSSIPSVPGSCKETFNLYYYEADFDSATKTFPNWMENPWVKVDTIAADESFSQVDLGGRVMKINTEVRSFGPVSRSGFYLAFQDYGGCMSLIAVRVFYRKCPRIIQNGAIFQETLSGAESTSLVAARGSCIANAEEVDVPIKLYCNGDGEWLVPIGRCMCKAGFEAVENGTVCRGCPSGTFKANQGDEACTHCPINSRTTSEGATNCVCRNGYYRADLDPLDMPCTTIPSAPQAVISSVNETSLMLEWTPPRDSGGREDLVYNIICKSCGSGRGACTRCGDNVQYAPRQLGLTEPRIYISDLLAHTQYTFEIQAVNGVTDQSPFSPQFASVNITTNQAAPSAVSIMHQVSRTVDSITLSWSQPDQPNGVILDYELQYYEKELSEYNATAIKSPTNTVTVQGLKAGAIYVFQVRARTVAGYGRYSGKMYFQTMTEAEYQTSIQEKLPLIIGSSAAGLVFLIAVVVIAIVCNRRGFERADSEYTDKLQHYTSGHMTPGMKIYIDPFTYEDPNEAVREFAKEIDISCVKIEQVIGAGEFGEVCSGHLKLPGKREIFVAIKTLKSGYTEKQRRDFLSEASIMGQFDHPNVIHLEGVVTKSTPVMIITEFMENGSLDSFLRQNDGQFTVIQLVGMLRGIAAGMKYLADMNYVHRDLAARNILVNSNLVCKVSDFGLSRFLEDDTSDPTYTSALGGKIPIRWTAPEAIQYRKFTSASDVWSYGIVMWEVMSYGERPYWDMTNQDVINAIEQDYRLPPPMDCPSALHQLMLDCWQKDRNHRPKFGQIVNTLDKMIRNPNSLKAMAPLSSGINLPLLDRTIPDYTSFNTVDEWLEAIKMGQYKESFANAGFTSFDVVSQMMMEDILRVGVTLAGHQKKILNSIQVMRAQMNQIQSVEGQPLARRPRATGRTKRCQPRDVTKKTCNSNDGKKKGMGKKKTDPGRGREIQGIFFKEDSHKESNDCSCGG
How it was run: as §1

HIPK2 = HIPK2 (UniProt Q9H2X6)
How it was run: as §1

TAOK2 = biological target: T3, TAOK2 (UniProt Q9UL54)
T3 sequence (whole entry): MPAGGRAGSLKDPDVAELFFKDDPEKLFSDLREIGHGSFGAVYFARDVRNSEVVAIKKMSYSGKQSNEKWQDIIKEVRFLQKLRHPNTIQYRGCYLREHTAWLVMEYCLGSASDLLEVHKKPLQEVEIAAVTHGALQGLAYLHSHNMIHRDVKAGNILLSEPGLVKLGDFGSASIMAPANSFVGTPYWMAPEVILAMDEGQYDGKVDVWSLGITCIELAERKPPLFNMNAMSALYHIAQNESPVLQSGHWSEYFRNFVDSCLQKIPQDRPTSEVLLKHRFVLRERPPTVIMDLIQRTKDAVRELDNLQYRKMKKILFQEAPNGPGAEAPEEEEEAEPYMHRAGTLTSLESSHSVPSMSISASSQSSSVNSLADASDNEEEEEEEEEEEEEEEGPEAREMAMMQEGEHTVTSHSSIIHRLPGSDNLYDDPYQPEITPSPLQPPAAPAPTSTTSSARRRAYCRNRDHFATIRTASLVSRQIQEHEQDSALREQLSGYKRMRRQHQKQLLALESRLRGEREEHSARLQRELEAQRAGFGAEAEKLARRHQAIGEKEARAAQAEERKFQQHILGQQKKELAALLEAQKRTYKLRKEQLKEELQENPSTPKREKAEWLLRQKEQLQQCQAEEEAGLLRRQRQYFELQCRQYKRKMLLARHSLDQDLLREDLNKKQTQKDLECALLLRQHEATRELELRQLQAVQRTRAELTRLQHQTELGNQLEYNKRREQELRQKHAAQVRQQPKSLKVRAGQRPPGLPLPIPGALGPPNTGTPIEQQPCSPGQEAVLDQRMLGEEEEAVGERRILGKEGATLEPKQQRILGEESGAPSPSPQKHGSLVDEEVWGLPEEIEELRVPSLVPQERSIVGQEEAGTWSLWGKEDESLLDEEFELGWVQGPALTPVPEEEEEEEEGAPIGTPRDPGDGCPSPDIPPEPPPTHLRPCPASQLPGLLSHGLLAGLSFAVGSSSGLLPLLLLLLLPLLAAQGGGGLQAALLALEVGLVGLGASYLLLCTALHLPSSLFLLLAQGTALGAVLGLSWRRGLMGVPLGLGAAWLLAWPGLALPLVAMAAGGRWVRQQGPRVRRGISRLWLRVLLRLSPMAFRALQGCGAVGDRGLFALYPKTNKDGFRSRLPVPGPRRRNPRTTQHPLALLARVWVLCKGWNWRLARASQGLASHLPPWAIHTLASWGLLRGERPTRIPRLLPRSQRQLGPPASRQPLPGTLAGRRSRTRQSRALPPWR
How it was run: as §1

HIPK2, sequence (Q9H2X6 whole entry, looked up): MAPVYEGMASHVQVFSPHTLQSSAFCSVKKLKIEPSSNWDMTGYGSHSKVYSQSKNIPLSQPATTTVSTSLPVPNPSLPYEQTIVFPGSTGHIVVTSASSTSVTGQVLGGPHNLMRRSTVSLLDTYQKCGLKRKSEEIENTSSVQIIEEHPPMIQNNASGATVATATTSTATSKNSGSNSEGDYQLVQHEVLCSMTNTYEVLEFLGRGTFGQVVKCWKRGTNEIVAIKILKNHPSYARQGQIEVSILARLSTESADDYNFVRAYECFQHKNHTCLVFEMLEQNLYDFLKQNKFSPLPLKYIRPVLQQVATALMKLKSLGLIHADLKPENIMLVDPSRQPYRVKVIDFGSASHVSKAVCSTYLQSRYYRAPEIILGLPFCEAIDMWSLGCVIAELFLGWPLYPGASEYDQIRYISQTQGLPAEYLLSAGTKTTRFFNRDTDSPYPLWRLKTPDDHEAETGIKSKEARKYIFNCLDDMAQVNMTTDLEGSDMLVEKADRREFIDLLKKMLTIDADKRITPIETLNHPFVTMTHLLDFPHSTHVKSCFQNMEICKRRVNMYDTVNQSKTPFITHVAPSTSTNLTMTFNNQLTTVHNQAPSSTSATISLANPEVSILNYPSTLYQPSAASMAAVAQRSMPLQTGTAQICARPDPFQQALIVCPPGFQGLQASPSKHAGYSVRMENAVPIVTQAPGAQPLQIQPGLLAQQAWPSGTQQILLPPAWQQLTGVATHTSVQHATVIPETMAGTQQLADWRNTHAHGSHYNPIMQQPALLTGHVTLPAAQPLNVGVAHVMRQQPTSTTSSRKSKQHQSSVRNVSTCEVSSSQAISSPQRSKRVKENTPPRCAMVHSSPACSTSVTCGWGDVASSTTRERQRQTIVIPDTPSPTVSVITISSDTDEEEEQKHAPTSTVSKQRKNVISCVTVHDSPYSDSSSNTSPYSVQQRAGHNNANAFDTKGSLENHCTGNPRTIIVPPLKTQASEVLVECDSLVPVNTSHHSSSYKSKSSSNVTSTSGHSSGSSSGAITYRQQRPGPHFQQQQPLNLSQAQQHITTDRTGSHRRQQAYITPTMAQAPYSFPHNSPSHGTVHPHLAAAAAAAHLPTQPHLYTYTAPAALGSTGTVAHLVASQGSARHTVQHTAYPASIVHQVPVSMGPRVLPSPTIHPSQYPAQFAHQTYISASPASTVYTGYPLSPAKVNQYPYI

For `O=C(NCCNC(=O)c1cc(Nc2cc(C3CC3)[nH]n2)nc(N2CCN(Cc3ccc(S(=O)(=O)F)cc3)CC2)n1)OC1CC/C=C/CCC1` (stereo not drawn), the pIC50 (UniProt O15530; cell material: Jurkat lysate) was less than 4.52, the pIC50 (UniProt O15530; cell material: Lysate mix) was less than 4.52 and the pIC50 (EPHB2; cell material: Jurkat cells) was less than 4.52. For the same compound, the pIC50 (EPHB2; cell material: Jurkat lysate) was less than 4.52, the pIC50 (EPHB2; cell material: Lysate mix) was less than 4.52 and the pIC50 (HIPK2; cell material: Jurkat cells) was 5.49. It also gave a pIC50 (HIPK2; cell material: Jurkat lysate) of less than 4.52, a pIC50 (HIPK2; cell material: Lysate mix) of less than 4.52 and a pIC50 (TAOK2; cell material: Jurkat cells) of 5.96. It also gave a pIC50 (TAOK2; cell material: Jurkat lysate) of 5.08 and a pIC50 (TAOK2; cell material: Lysate mix) of 5.33.

For `Cc1cc(Nc2cc(C(=O)NCCNC(=O)OC3CC/C=C/CCC3)nc(N3CCN(Cc4ccc(S(=O)(=O)F)cc4)CC3)n2)n[nH]1` (stereo not drawn), the pIC50 (UniProt O15530; cell material: Lysate mix) was less than 4.52, the pIC50 (EPHB2; cell material: Lysate mix) was less than 4.52 and the pIC50 (HIPK2; cell material: Lysate mix) was less than 4.52. For the same compound, the pIC50 (TAOK2; cell material: Lysate mix) was 5.15.

`CCNC(=O)c1cc(Nc2cc(C3CC3)[nH]n2)nc(N2CCN(Cc3ccc(S(=O)(=O)F)cc3)CC2)n1` was tested, and the pIC50 (UniProt O15530; cell material: Lysate mix) was less than 4.52, the pIC50 (EPHB2; cell material: Lysate mix) was less than 4.52 and the pIC50 (HIPK2; cell material: Lysate mix) was 5.72. The pIC50 (TAOK2; cell material: Lysate mix) was less than 4.52.

`CCNC(=O)c1cc(Nc2cc(C)[nH]n2)nc(N2CCN(Cc3ccc(S(=O)(=O)F)cc3)CC2)n1` was tested, and the pIC50 (UniProt O15530; cell material: Lysate mix) was less than 4.52, the pIC50 (EPHB2; cell material: Lysate mix) was less than 4.52 and the pIC50 (HIPK2; cell material: Lysate mix) was 4.77. For the same compound, the pIC50 (TAOK2; cell material: Lysate mix) was less than 4.52.

For `C#CCNC(=O)c1cc(Nc2cc(C3CC3)[nH]n2)nc(N2CCN(Cc3ccc(S(=O)(=O)F)cc3)CC2)n1`, the pIC50 (UniProt O15530; cell material: Jurkat cells) was 5.5, the pIC50 (UniProt O15530; cell material: Jurkat lysate) was less than 4.52 and the pIC50 (UniProt O15530; cell material: Lysate mix) was less than 4.52. The pIC50 (EPHB2; cell material: Jurkat cells) was less than 4.52, the pIC50 (EPHB2; cell material: Jurkat lysate) was less than 4.52 and the pIC50 (EPHB2; cell material: Lysate mix) was less than 4.52. The pIC50 (HIPK2; cell material: Jurkat cells) was 6.12, the pIC50 (HIPK2; cell material: Jurkat lysate) was 5.54 and the pIC50 (HIPK2; cell material: Lysate mix) was 5.92. For the same compound, the pIC50 (TAOK2; cell material: Jurkat lysate) was less than 4.52 and the pIC50 (TAOK2; cell material: Lysate mix) was less than 4.52.

For `C#CCNC(=O)c1cc(Nc2cc(C)[nH]n2)nc(N2CCN(Cc3ccc(S(=O)(=O)F)cc3)CC2)n1`, the pIC50 (UniProt O15530; cell material: Lysate mix) was less than 4.52, the pIC50 (EPHB2; cell material: Lysate mix) was less than 4.52 and the pIC50 (HIPK2; cell material: Lysate mix) was 4.98. It also gave a pIC50 (TAOK2; cell material: Lysate mix) of less than 4.52.
